The text below walks through data of US7192746B2, “α-Isomaltosyltransferase, process for producing the same and use thereof” (Kabushiki Kaisha Hayashibara Seibutsu Kagaku Kenkyujo, priority 2000, dated 2007).

What all share (assay): Specificity to transferring acceptor
What all share (assay type): biochemical
What all share (parameters): key: −: no saccharide transferred product was formed; ±: a saccharide-transferred product formed in an amount of less than one percent to the total sugars; +: a saccharide-transferred product was formed in an amount of over one percent but below 10% to the total sugars; ++: a saccharide-transferred product was formed in an amount of over 10% to the total sugars

The subject of assay [1] is α-isomaltosyl-transferring enzyme from Bacillus globisporus C9. To be noted: panose as saccharide donor, 10 units/g substrate, 3.2% (w/v), 30° C., pH 6.0, 24 hours. Here is the method:
(§1) Saccharides were tested as follows to examine whether they can be used as transferring acceptors for the α-isomaltosyl-transferring enzyme of the present invention. A solution of D-glucose, D-xylose, L-xylose, D-galactose, D-fructose, D-mannose, D-arabinose, D-fucose, L-sorbose, L-rhamnose, methyl-α-glucoside (or methyl-α-glucopyranoside), methyl-β-glucoside (or methyl-β-glucopyranoside), N-acetyl-D-glucosamine, D-ribose, L-ribose, D-psicose, sorbitol, xylitol, mannitol, arabitol, ribitol, erythritol, maltose, maltotriose, maltotetraose, maltopentaose, isomaltose, isomaltotriose, α,α-trehalose, α,β-trehalose, kojibiose, nigerose, cellobiose, gentibiose, isopanose, maltitol, maltotriitol, lactose, sucrose, erlose, isomaltosylglucoside, α-cyclodextrin, β-cyclodextrin, γ-cyclodextrin, or L-ascorbic acid was prepared. To each solution was added panose as a saccharide donor to give an equal concentration, admixed with 10 units/g substrate of a purified specimen of either α-isomaltosyl-transferring enzyme from Bacillus globisporus C9 obtained by the method in Experiment 4, Bacillus globisporus C11 obtained by the method in Experiment 7, Bacillus globisporus N75 obtained by the method in Experiment 11, or Arthrobacter ramosus S1 obtained by the method in Experiment 15, or a partially purified specimen of α-isomaltosyl-transferring enzyme from Arthrobacter globiformis A19 obtained by the method in Experiment 18, followed by adjusting the saccharide concentration to 3.2% (w/v). The mixtures thus obtained were enzymatically reacted at 30° C. and Ph 6.0 for 24 hours. The saccharide composition of the resulting reaction mixtures were analyzed on gas chromatography (abbreviated as “GLC” hereinafter) for monosaccharides and disaccharides as testing saccharides, and on HPLC for tri- or higher-saccharides as testing saccharides to confirm whether these saccharides can be used as transferring acceptors for the above enzymes with an index of the positive or negative formation of a saccharide transferred product. In performing GLC, the following apparatuses and conditions were used: GLC apparatus, “GC-16A” commercialized by Shimadzu Corporation, Tokyo, Japan; column, a stainless-steel column, 3 mm in diameter and 2 m in length, packed with 2% “SILICONE OV-17/[…]”, commercialized by GL Sciences Inc., Tokyo, Japan; carrier gas, nitrogen gas at a flow rate of 40 ml/min under temperature conditions of increasing from 160° C. to 320° C. at an increasing temperature rate of 7.5° C./min; and detection, a hydrogen flame ionization detector. In the case of HPLC analysis, the apparatuses and conditions used were: HPLC apparatus, “CCPD” commercialized by Tosoh Corporation, Tokyo, Japan; column, “ODS-AQ-303” commercialized by YMC Co., Ltd., Tokyo, Japan; eluent, water at a flow rate of 0.5 ml/min; and detection, a differential refractometer.

The subject of assay [2] is α-isomaltosyl-transferring enzyme from Arthrobacter ramosus S1. The conditions noted are these: panose as saccharide donor, 10 units/g substrate, 3.2% (w/v), 30° C., pH 6.0, 24 hours. Here is the method: as §1
In assay [3] the test system is α-isomaltosyl-transferring enzyme from Arthrobacter globiformis A19. The conditions noted are these: partially purified enzyme, panose as saccharide donor, 10 units/g substrate, 3.2% (w/v), 30° C., pH 6.0, 24 hours. The method, then: as §1
The subject of assay [4] is α-isomaltosyl-transferring enzyme from Bacillus globisporus C11. To be noted: panose as saccharide donor, 10 units/g substrate, 3.2% (w/v), 30° C., pH 6.0, 24 hours. Here is the method: as §1
Assay [5] deals with α-isomaltosyl-transferring enzyme from Bacillus globisporus N75. The conditions noted are these: panose as saccharide donor, 10 units/g substrate, 3.2% (w/v), 30° C., pH 6.0, 24 hours. The method, then:
as §1

Molecules are shown by their SMILES.

Take `O=C[C@@H](O)[C@@H](O)[C@H](O)[C@H](O)CO` [D-Mannose, D-mannose]: the “Product of transferring reaction, Enzyme of Strain C9” value (shortened to “Product … of Strain C9”) in assay [1] was “−”. Also, the “Product of transferring reaction, Enzyme of Strain S1” value (from here on “Product … of Strain S1”) in assay [2] is on record as “−”. Besides, the “Product of transferring reaction, Enzyme of Stain A19” value (“Product … of Stain A19” for short) in assay [3] was “−”. Further, the “Product of transferring reaction, Enzyme of Strain C11” value (“Product … of Strain C11” for short) in assay [4] was “−”. Also, in assay [5], the “Product of transferring reaction, Enzyme of Strain N75” value (from here on “Product … of Strain N75”) is “−”.
For the compound `OC[C@@H](O)[C@@H](O)[C@H](O)[C@H](O)CO` [Mannitol, mannitol], in assay [1], the “Product … of Strain C9” value is given as “−”. Further, the “Product … of Strain S1” value in assay [2] is recorded as “−”. In addition, in assay [3], the “Product … of Stain A19” value is recorded as “−”. In addition, the “Product … of Strain C11” value in assay [4] was “−”. In assay [5], the “Product … of Strain N75” value was “−”.
As for `O=C(CO)[C@H](O)[C@H](O)[C@H](O)CO` [D-Psicose, D-psicose], the “Product … of Strain C9” value in assay [1] is recorded as “−”. For the same compound, in assay [2], the “Product … of Strain S1” value is on record as “± (a saccharide-transferred product formed in an amount of less than one percent to the total sugars)”. Also, the “Product … of Stain A19” value in assay [3] is listed as “± (a saccharide-transferred product formed in an amount of less than one percent to the total sugars)”. Further, in assay [4], the “Product … of Strain C11” value is given as “−”. Besides, the “Product … of Strain N75” value in assay [5] is reported as “−”.
As to `O=C[C@H](O)[C@H](O)[C@H](O)CO` [D-Ribose, D-ribose], the “Product … of Strain C9” value in assay [1] is on record as “−”. The “Product … of Strain S1” value in assay [2] is “+ (a saccharide-transferred product was formed in an amount of over one percent but below 10% to the total sugars)”. For the same compound, in assay [3], the “Product … of Stain A19” value is “± (a saccharide-transferred product formed in an amount of less than one percent to the total sugars)”. For the same compound, in assay [4], the “Product … of Strain C11” value was “−”. Besides, the “Product … of Strain N75” value in assay [5] is “−”.
Take `OC[C@@H](O)[C@@H](O)CO` [Erythritol, erythritol]: in assay [1], the “Product … of Strain C9” value was “+ (a saccharide-transferred product was formed in an amount of over one percent but below 10% to the total sugars)”. Besides, the “Product … of Strain S1” value in assay [2] was “+ (a saccharide-transferred product was formed in an amount of over one percent but below 10% to the total sugars)”. In addition, the “Product … of Stain A19” value in assay [3] is on record as “± (a saccharide-transferred product formed in an amount of less than one percent to the total sugars)”. Further, in assay [4], the “Product … of Strain C11” value was “+ (a saccharide-transferred product was formed in an amount of over one percent but below 10% to the total sugars)”. In addition, in assay [5], the “Product … of Strain N75” value was “+ (a saccharide-transferred product was formed in an amount of over one percent but below 10% to the total sugars)”.
For `O=C[C@@H](O)[C@H](O)[C@@H](O)CO` [L-Xylose, L-xylose], the “Product … of Strain C9” value in assay [1] is “++ (a saccharide-transferred product was formed in an amount of over 10% to the total sugars)”. In assay [2], the “Product … of Strain S1” value is “++ (a saccharide-transferred product was formed in an amount of over 10% to the total sugars)”. The “Product … of Stain A19” value in assay [3] is listed as “++ (a saccharide-transferred product was formed in an amount of over 10% to the total sugars)”. Besides, the “Product … of Strain C11” value in assay [4] was “++ (a saccharide-transferred product was formed in an amount of over 10% to the total sugars)”. Moreover, in assay [5], the “Product … of Strain N75” value was “++ (a saccharide-transferred product was formed in an amount of over 10% to the total sugars)”.
Turning to `O=C[C@@H](O)[C@H](O)[C@H](O)CO` [D-Arabinose, D-arabinose], in assay [1], the “Product … of Strain C9” value is reported as “± (a saccharide-transferred product formed in an amount of less than one percent to the total sugars)”. In assay [2], the “Product … of Strain S1” value is listed as “+ (a saccharide-transferred product was formed in an amount of over one percent but below 10% to the total sugars)”. Moreover, in assay [3], the “Product … of Stain A19” value is given as “± (a saccharide-transferred product formed in an amount of less than one percent to the total sugars)”. Moreover, the “Product … of Strain C11” value in assay [4] is recorded as “± (a saccharide-transferred product formed in an amount of less than one percent to the total sugars)”. Also, the “Product … of Strain N75” value in assay [5] is “± (a saccharide-transferred product formed in an amount of less than one percent to the total sugars)”.
Turning to `CO[C@@H]1O[C@H](CO)[C@@H](O)[C@H](O)[C@H]1O` [Methyl-β-glucoside, methyl-β-glucoside], the “Product … of Strain C9” value in assay [1] is given as “++ (a saccharide-transferred product was formed in an amount of over 10% to the total sugars)”. The “Product … of Strain S1” value in assay [2] was “+ (a saccharide-transferred product was formed in an amount of over one percent but below 10% to the total sugars)”. Also, the “Product … of Stain A19” value in assay [3] was “+ (a saccharide-transferred product was formed in an amount of over one percent but below 10% to the total sugars)”. In addition, in assay [4], the “Product … of Strain C11” value was “++ (a saccharide-transferred product was formed in an amount of over 10% to the total sugars)”. For the same compound, the “Product … of Strain N75” value in assay [5] is given as “++ (a saccharide-transferred product was formed in an amount of over 10% to the total sugars)”.
On to `O=C[C@H](O)[C@@H](O)[C@H](O)[C@H](O)CO` [D-Glucose, D-glucose], for which the “Product … of Strain C9” value in assay [1] was “++ (a saccharide-transferred product was formed in an amount of over 10% to the total sugars)”. In assay [2], the “Product … of Strain S1” value is “++ (a saccharide-transferred product was formed in an amount of over 10% to the total sugars)”. For the same compound, the “Product … of Stain A19” value in assay [3] is “++ (a saccharide-transferred product was formed in an amount of over 10% to the total sugars)”. In addition, the “Product … of Strain C11” value in assay [4] is on record as “++ (a saccharide-transferred product was formed in an amount of over 10% to the total sugars)”. Further, the “Product … of Strain N75” value in assay [5] is “++ (a saccharide-transferred product was formed in an amount of over 10% to the total sugars)”.
As for `O=C(CO)[C@@H](O)[C@H](O)[C@@H](O)CO` [L-Sorbose, L-sorbose], in assay [1], the “Product … of Strain C9” value is recorded as “+ (a saccharide-transferred product was formed in an amount of over one percent but below 10% to the total sugars)”. For the same compound, the “Product … of Strain S1” value in assay [2] is on record as “+ (a saccharide-transferred product was formed in an amount of over one percent but below 10% to the total sugars)”. The “Product … of Stain A19” value in assay [3] is “+ (a saccharide-transferred product was formed in an amount of over one percent but below 10% to the total sugars)”. For the same compound, in assay [4], the “Product … of Strain C11” value is “+ (a saccharide-transferred product was formed in an amount of over one percent but below 10% to the total sugars)”. Besides, in assay [5], the “Product … of Strain N75” value is recorded as “+ (a saccharide-transferred product was formed in an amount of over one percent but below 10% to the total sugars)”.
